Experimental data published in US20230190761A1, “METHYLENE BLUE STABILIZED MRNA COMPOSITIONS” (ModernaTX, Inc., priority 2020, published 2023).
Several values for one entry are separate records, joined by “and”; a condition that tells them apart may be missing. Equal entries are not always repeated. Entries after “also recorded” stand apart in the source; their conditions may differ.

Assays:
[1] = system: mRNA within LNP compositions; assay: mRNA integrity by fragmentation analysis after 10 days at 5, 25 or 40° C. with methylene blue; assay type: physicochemical; conditions: for mRNA stability by fragmentation analysis: 0.1-6 mM methylene blue
From the text: mRNA purity can be determined by reverse phase high-performance liquid chromatography (RP-HPLC) size based separation. This method can be used to assess mRNA integrity by a length-based gradient RP separation and UV detection of RNA at 260 nm. As used herein “main peak” or “main peak purity” refers to the RP-HPLC signal detected from mRNA that corresponds to the full size mRNA molecule loaded within a given LNP formulation. mRNA purity can also be assessed by fragmentation analysis. Fragmentation analysis (FA) is a method by which nucleic acid (e.g., mRNA) fragments can be analyzed by capillary electrophoresis. Fragmentation analysis involves sizing and quantifying nucleic acids (e.g., mRNA), for example by using an intercalating dye coupled with an LED light source. Such analysis may be completed, for example, with a Fragment Analyzer from Advanced Analytical Technologies, Inc.
In view of the surprising and somewhat counter-intuitive finding that methylene blue enhanced stability of mRNA-LNP formulations, additional experimentation was conducted. The stability of mRNA-LNPs in the presence of increasing levels of methylene blue was investigated upon incubation at 5° C., 25° C. or 40° C. for 10 days. […] In addition to chemical stability, a careful examination of the possible impact of methylene blue on the physical state of the LNP was performed using dynamic light scattering (DLS). This technique is exquisitely sensitive to tiny changes in hydrodynamic nanoparticle size, especially with respect to the formation of larger aggregates known to be a common physical degradation mode of many LNPs.

mRNA in LNP formulations = assay: mRNA-LNP purity by RP-HPLC and fragment analysis, 40° C. 12 days, light vs dark; assay type: physicochemical
Method: As detailed in this example, samples are labeled as follows: A=0 mM methylene blue; B=0.5 mM methylene blue; C=1 mM methylene blue; D=1.5 mM methylene blue; and E=2.0 mM methylene blue.
After incubating samples at 40° C. for 12 days, either protected from light or unprotected, fragmentation analysis was conducted to evaluate the presence of lipid-RNA adducts.

[2] = system: mRNA in LNP formulation containing two mRNA; assay: Chemical stability of mRNA-LNP after 5 months refrigerated storage; assay type: physicochemical
Method: This example relates to stabilization of mRNA in LNP formulations by the addition of methylene blue over long-term refrigerated storage. […] To confirm that this stabilization effect would also occur with long-term refrigerated storage, a study was conducted to evaluate the effect of various concentrations of methylene blue (0, 0.5, 1, 1.5 and 2.0 mM) on the stability of a lipid nanoparticle formulation containing two distinct mRNA compounds stored at 5° C.
To determine the effects of methylene blue on the chemical stability of mRNA-LNP formulations over long-term refrigerated storage, mRNA purity, mRNA fragmentation, and mRNA-lipid adduct formation were measured over time in mRNA-LNP samples containing varying concentrations of methylene blue (A=0 mM, B=0.5 mM, C=1.0 mM, D=1.5 mM, E=2.0 mM methylene blue). Total purity was determined according to main peak percentage by RP-HPLC (FIG. 13A), fragmentation was determined according to fragmentation analysis (FIG. 13B), and mRNA-lipid adduct formation was determined according to RP-HPLC (FIG. 13C).

lyophilized mRNA-LNP = assay: Stability of lyophilized mRNA-LNP with methylene blue (RP-HPLC); assay type: physicochemical; conditions: lyophilized mRNA-LNP powder with 1 mM methylene blue, 1 week at 40° C.
Method: To evaluate whether methylene blue could have a stabilization effect on lyophilized powder formulations of mRNA-LNP, studies were performed to compare the effect of 1 mM methylene blue on loss of purity of a lyophilized mRNA-LNP. In this experiment methylene blue was added to LNP immediately prior to lyophilization. The resulting powders (shown in FIG. 15) were stored at −80° C., 5° C. or 40° C. with or without methylene blue.

mRNA-LNP = assay: DOE study of solution composition with and without methylene blue, main peak purity by RP-HPLC; assay type: physicochemical; conditions: 2 mM methylene blue, 40° C. ~1 week
From the text: To broadly evaluate the effect of methylene blue under a large number of systematically varied solution conditions, a design of experiment (DOE) approach was utilized.

mRNA-LNP formulations = assay: mRNA-LNP stability in differing buffer conditions with or without methylene blue (fragmentation analysis and RP-HPLC); assay type: physicochemical; conditions: 150 mM NaCl, 2 mM MB
Method: This example discusses stabilization effects of methylene blue on mRNA-LNP formulations in varying buffer conditions. To match experiments conducted on lyophilized products, which were reconstituted in saline, and refrigerated/frozen formulations in TRIS-Sucrose, two buffers across the range of pH were tested. Sodium chloride was added to mimic saline, as it can cause methylene blue to crash out of solution.

mRNA [3] = assay: ITC of dye-mRNA interaction; assay type: binding
mRNA [4] = assay: DLS of methylene blue-mRNA interaction; assay type: physicochemical; conditions: methylene blue concentrations in the 10 μM range; data not shown
From the text: The images in FIG. 22 show the effect of thionine on mRNA-LNPs. […] The significant protection against fragmentation and adduct formation conferred by the compounds disclosed herein may be based on this effect on nucleic acid conformational state.

[5] = system: lipid nanoparticles (LNP); assay: Permeation of phenothiazinium dyes into LNP and binding to encapsulated mRNA; assay type: physicochemical; conditions: optical spectroscopic studies, Cryo-EM, DLS, isothermal titration calorimetry
From the text: This example describes phenothiazinium dyes which interact with mRNA and their impact on LNP formulations. […] These interpretations were made based on extensive optical spectroscopic studies, Cryo-EM, dynamic light scattering (DLS) and isothermal titration calorimetry studies.

mRNA stability by fragmentation analysis ([1]; 5° C.): slight trend in the opposite direction
methylene blue concentration range at which stabilizing effect reached a maximum ([1]; 40° C., fragmentation analysis): 1.5 to 3.0 mM
mRNA stability by fragmentation analysis ([1]; room temperature): protective effect
optimal methylene blue concentration with respect to adduct formation ([2]; 5 months refrigerated storage, RP-HPLC): 1.5 mM
main peak purity (lyophilized mRNA-LNP): 30% and 33%
average purity of the 14 samples (mRNA-LNP; 14 buffer/pH/NaCl conditions): 60±6%
main peak mRNA purity (range over samples 15-28) (mRNA-LNP; Tris or phosphate buffer pH 7.0-8.5, 0 or 150 mM NaCl, RP-HPLC): 50-70%
Adduct (mRNA-LNP formulations; pH 7, TRIS-sucrose buffer): 17.6%
Fragmentation (mRNA-LNP formulations; pH 7, TRIS-sucrose buffer): 16.0%
Main peak (mRNA-LNP formulations; pH 7, TRIS-sucrose buffer): 66.4%
Adduct (mRNA-LNP formulations; pH 7, phosphate buffer): 23.9%
Fragmentation (mRNA-LNP formulations; pH 7, phosphate buffer): 17.1%
Main peak (mRNA-LNP formulations; pH 7, phosphate buffer): 59.1%
Adduct (mRNA-LNP formulations; pH 7.5, TRIS-sucrose buffer): 16.4%
Fragmentation (mRNA-LNP formulations; pH 7.5, TRIS-sucrose buffer): 19.5%
Main peak (mRNA-LNP formulations; pH 7.5, TRIS-sucrose buffer): 64.1%
Adduct (mRNA-LNP formulations; pH 7.5, phosphate buffer): 22.0%
Fragmentation (mRNA-LNP formulations; pH 7.5, phosphate buffer): 18.7%
Main peak (mRNA-LNP formulations; pH 7.5, phosphate buffer): 59.4%
Adduct (mRNA-LNP formulations; pH 8, TRIS-sucrose buffer): 15.9%
Fragmentation (mRNA-LNP formulations; pH 8, TRIS-sucrose buffer): 22.9%
Main peak (mRNA-LNP formulations; pH 8, TRIS-sucrose buffer): 61.2%
Adduct (mRNA-LNP formulations; pH 8, phosphate buffer): 22.7%
Fragmentation (mRNA-LNP formulations; pH 8, phosphate buffer): 25.0%
Main peak (mRNA-LNP formulations; pH 8, phosphate buffer): 52.2%
Adduct (mRNA-LNP formulations; pH 8.5, TRIS-sucrose buffer): 13.3%
Fragmentation (mRNA-LNP formulations; pH 8.5, TRIS-sucrose buffer): 32.5%
Main peak (mRNA-LNP formulations; pH 8.5, TRIS-sucrose buffer): 54.1%
dissociation constant for the dye-mRNA interaction (ITC) (mRNA [3]): μm dissociation constant
Structure (SMILES): CN(C)c1ccc2nc3ccc(N(C)C)cc3[s+]c2c1 [methylene blue]
mRNA stability by RP-HPLC and fragmentation analysis (mRNA in LNP formulations; 12 days, protected from light, 0.5-2.0 mM methylene blue, vs −80 C controls): enhanced the stability of mRNA in LNP formulations
mRNA degradation by RP-HPLC and fragmentation analysis (mRNA in LNP formulations; 12 days, unprotected from light, samples B-E (0.5-2.0 mM methylene blue)): more mRNA degradation than samples stored protected from light or those without methylene blue
adduct formation (mRNA in LNP formulations; protected from light): did not have a detrimental effect on adduct formation
mRNA fragmentation rate ([2]; methylene blue as low as 0.5 mM, 5 months (151 days) refrigerated storage): significantly inhibit mRNA fragmentation rate relative to LNP compositions lacking dye; also recorded: significantly inhibited relative to control
mRNA hydrodynamic radii (DLS) (mRNA [4]): measurable decrease in mRNA hydrodynamic radii
permeation of lipid nanoparticles and binding to encapsulated mRNA [5]: does not permeate LNPs to the same extent as certain other phenothiazinium dyes
